Legend:
[1] = test system: HCV genotype 1b (HCV-1b) replicon cells; experiment: HCV genotype 1b replicon luciferase assay (EC50); assay type: cell-based, hepatitis C virus genotype 1b (Con1 clone); details: 3 days, luciferase (Bright-Glo)
Protocol: (§1) The EC50 and CC50 values of anti-HCV compounds were determined by HCV genotype 1a (HCV-1a) and 1B (HCV-1b) stable transfer replication (replicon) cells. The source of genotype 1a replicon is H77 clones containing K1691R, K2040R and S2204I adaptive mutations. The source of genotype 1b replicon is Con1 clones containing E1202G, T1280I and K1846T adaptive mutations.
(§2) HCV 1a (HCV-1a) and 1b (HCV-1b) gene subtype replicon system contains the related HCV gene subtype non structural protein gene, G418 resistance gene NEO and luciferase gene, which results in that HCV related protein and luciferase can be stably expressed in cells. By detecting the level of expression of luciferase gene, the level of HCV replication can be determined. Therefore, the system is used as a model for screening the activity of anti-HCV compound in vitro.
(§3) HCV Replicon Cell Lines: HCV-1a and HCV-1b Cells
(§4) The compound powder was dissolved in 100% DMSO. Then the compound was diluted 5 times with 6 points, and added into the cell plate with Echo liquid handler. Ensure the final concentration of DMSO was 0.5%. Each compound was tested in double holes. Maximum initial concentration was 100, 10 or 1 nM, 5 times dilution, 6 points.
(§5) b) Cell Culture (HCV-1a or HCV-1b Replicon Cell):
(§6) 1) absorbing the culture supernatant of the cell culture and washing the cells with 10 mL PBS.
(§7) 2) adding preheated pancreatin to the washed cell culture flasks, rotating culture bottle to make the bottom of the culture bottle uniformly covered by pancreatin, then placed into 37° C., 5% CO2 incubator to digest.
(§8) 3) suspending cells in each T150 culture flask with 10-15 mL culture medium, absorbing 0.1 mL liquid and diluting 2 times by trypan blue solution as counted.
(§9) 4) diluting cells to 8×10^4/mL with the culture medium, adding the diluted cells into the compound-containing 96-well plate (Greiner, Cat.#655090) (100 μL/well, 8000 cells/well) with automatic liquid separator (Thermo Scientific). Then place into a 37° C., 5% CO2 incubator for 3 days. Cell control well: no compound, only containing 0.5% DMSO.
(§10) 6) then adding luciferase luminescence substrate Bright-Glo, after incubation for 5 minutes, detecting the luciferase activity by chemical luminescence detection system Envison (wavelength>700 nm); analyzing the anti-HCV inhibitory activity of the compounds according to luciferase data, which was used to calculate EC50 values.
(§11) The EC50 or CC50 values were obtained by nonlinear fitting analysis on inhibition percentage (inh %) data with GraphPad Prism software.

[2] = test system: HCV genotype 1a (HCV-1a) replicon cells; experiment: HCV genotype 1a replicon luciferase assay (EC50); assay type: cell-based, hepatitis C virus genotype 1a (H77 clone); details: Hepatitis C virus, 72 h, 3 days, luciferase (Bright-Glo)
Protocol: as §1, §2, §3, §4, §5, §6, §7, §8, §9, §10, §11

Row | SMILES | EC50 ([1]; Hepatitis C virus, 72 h) [nM] | EC50 [2] [nM] | EC50 [1] [nM]
1 | COC(=O)N[C@H](C(=O)N1CCC[C@H]1c1ncc(-c2ccc(-c3ccc(-c4cnc([C@@H]5[C@H]6CC[C@H](C6)[C@H]5C(=O)N[C@H](C)c5nccs5)[nH]4)cc3)cc2)[nH]1)C(C)C [AA_279_ENDOA2_B] | 0.001 to 0.1 | 1 to 10 | –
2 | COC(=O)N[C@H](C(=O)N1CCC[C@H]1c1ncc(-c2ccc(-c3ccc(-c4cnc(C5C6CCC(C6)[C@H]5C(=O)N(NC(=O)OC)C(C)C)[nH]4)cc3)cc2)[nH]1)C(C)C (stereo partly shown) [AA_016] | – | – | 0.101 to 1
3 | COC(=O)N[C@H](C(=O)N1CCC[C@H]1c1ncc(-c2ccc(-c3ccc(-c4cnc([C@@H]5[C@H]6CC[C@H](C6)[C@H]5C(=O)N(Cc5cccnc5)C(C)C)[nH]4)cc3)cc2)[nH]1)C(C)C [AA_285_ENDOA2] | 0.001 to 0.1 | 1 to 10 | –
4 | COC(=O)N[C@H](C(=O)N1CCC[C@H]1c1ncc(-c2ccc(-c3ccc(-c4cnc([C@@H]5[C@H]6CC[C@H](C6)[C@H]5C(=O)N[C@H](C(=O)NCc5cccnc5)C(C)C)[nH]4)cc3)cc2)[nH]1)C(C)C [AA_296_ENDOA2] | 0.101 to 1 | 1 to 10 | –
5 | COC(=O)NC(C(=O)N1CCC[C@H]1c1ncc(-c2ccc(-c3ccc4cc(-c5cnc(C6CCCC[C@H]6C(=O)N(NC(=O)OC)C(C)C)[nH]5)ccc4c3)cc2)[nH]1)C1CCOC1 (stereo partly shown) [AA_076] | 1 to 10 | – | –
6 | COC(=O)NC(C(=O)[C@@H]1CCCCC1c1ncc(-c2ccc(-c3ccc4c(c3)cc3n4C(c4ccc(F)cc4)Oc4cc(-c5cnc([C@@H]6CCCN6C(=O)[C@@H](NC(=O)OC)C(C)C)[nH]5)ccc4-3)cc2)[nH]1)C(C)C (stereo partly shown) [AA_089] | 1 to 10 | – | –
7 | COC(=O)N[C@@H](COC(C)(C)C)C(=O)N1CCC[C@H]1c1ncc(-c2ccc(-c3ccc(-c4ccc([C@@H]5CCCN5C(=O)[C@@H](NC(=O)OC)C(C)C)[nH]4)cc3)cc2)[nH]1 [AG_098] | 0.001 to 0.1 | 1 to 10 | –
8 | COC(=O)N[C@H](C(=O)N1CCC[C@H]1c1ncc(-c2ccc(-c3ccc(-c4cnc([C@@H]5C6CCC(C6)[C@H]5C(=O)N[C@@H](C(=O)NCC(F)F)C(C)C)[nH]4)cc3)cc2)[nH]1)C(C)C (stereo partly shown) [AA_276] | 1 to 10 | 10 to 100 | –
9 | COC(=O)N[C@H](C(=O)N1CCC[C@H]1c1ncc(-c2ccc3cc(-c4ccc(-c5cnc([C@H]6C7CCC(O7)[C@H]6C(=O)N(NC(=O)OC)C(C)C)[nH]5)cc4)ccc3c2)[nH]1)C(C)C (stereo partly shown) [AA_106] | 10 to 100 | – | –
10 | COC(=O)N[C@H](C(=O)N1CCC[C@H]1c1ncc(-c2ccc(-c3ccc([C@H](C)NC(=O)[C@H]4CCCC[C@H]4C(=O)N(NC(=O)OC)C(C)C)cc3)cc2)[nH]1)C(C)C [AA_097] | 10 to 100 | – | –
11 | COC(=O)NC(C(=O)C1CCCCC1c1ncc(-c2ccc(-c3ccc(-c4cnc(C5CCCC[C@H]5C(=O)N(NC(=O)OC)C(C)C)[nH]4)cc3)cc2)[nH]1)C(C)C (stereo partly shown) [AA_029] | 10 to 100 | – | –
12 | COC(=O)N[C@H](C(=O)N1CCC[C@H]1c1ncc(-c2ccc(-c3ccc(-c4cnc([C@@H]5[C@H]6CC[C@H](C6)[C@H]5C(=O)NCc5nccn5C)[nH]4)cc3)cc2)[nH]1)C(C)C [AA_288_ENDOA2] | 0.001 to 0.1 | 1 to 10 | –
13 | COC(=O)N[C@H](C(=O)N1CCC[C@H]1c1ncc(-c2ccc(-c3ccc(-c4cnc([C@@H]5[C@H]6CC[C@H](C6)[C@H]5C(N)=O)[nH]4)cc3)cc2)[nH]1)C(C)C [AA_284_ENDOA2] | 0.001 to 0.1 | 10 to 100 | –
14 | COC(=O)N[C@H](C(=O)N1CCC[C@H]1c1ncc(-c2ccc(-c3ccc(-c4cnc([C@@H]5[C@H]6CC[C@H](C6)[C@H]5C(=O)NN5CC[C@H](C)C5=O)[nH]4)cc3)cc2)[nH]1)C(C)C [AA_295_ENDOA2_B] | 0.101 to 1 | 10 to 100 | –
15 | COC(=O)CN(C(=O)[C@@H]1CCCCC1c1ncc(-c2ccc(-c3ccc(-c4cnc([C@@H]5CCCN5C(=O)[C@@H](NC(=O)OC)C(C)C)[nH]4)cc3)cc2)[nH]1)C(C)C (stereo partly shown) [AA_063] | 1 to 10 | – | –
16 | COC(=O)N[C@H](C(=O)N1CCC[C@H]1c1ncc(-c2ccc(-c3ccc(-c4cnc([C@@H]5[C@H]6CC[C@H](C6)[C@H]5C(=O)N[C@@H](C)c5cccnc5F)[nH]4)cc3)cc2)[nH]1)C(C)C [AA_283_ENDOA2_B] | 0.001 to 0.1 | 0.001 to 0.1 | –
17 | COC(=O)CNC(=O)C1(NC(=O)[C@@H]2C3CCC(C3)[C@H]2c2ncc(-c3ccc(-c4ccc(-c5cnc([C@@H]6CCCN6C(=O)[C@@H](NC(=O)OC)C(C)C)[nH]5)cc4)cc3)[nH]2)CCCCC1 (stereo partly shown) [AA_278] | 0.101 to 1 | 10 to 100 | –
18 | COC(=O)N[C@H](C(=O)N1CCC[C@H]1c1ncc(-c2ccc(-c3ccc(-c4cnc(C5C6CCC(O6)[C@H]5C(=O)N(NC(=O)OC)C(C)C)[nH]4)cc3)cc2)[nH]1)C(C)C (stereo partly shown) [AA_095] | 1 to 10 | – | –

Row | SMILES | EC50 ([1]; Hepatitis C virus, 72 h) [nM] | EC50 [2] [nM] | EC50 [1] [nM]
19 | COC(=O)N[C@H](C(=O)N1CCC[C@H]1c1ncc(-c2ccc(-c3ccc(-c4cnc(C5CCCC[C@H]5C(=O)N5CCNC(=O)C5)[nH]4)cc3)cc2)[nH]1)C(C)C (stereo partly shown) [AA_054] | 0.101 to 1 | – | –
20 | CNC(=O)CN(C(=O)C1=C(c2ncc(-c3ccc(-c4ccc(-c5cnc([C@@H]6CCCN6C(=O)[C@@H](NC(=O)OC)C(C)C)[nH]5)cc4)cc3)[nH]2)CCC1)C(C)C [AA_065] | 1 to 10 | – | –
21 | COC(=O)N[C@H](C(=O)N1CCC[C@H]1c1ncc(-c2ccc(-c3ccc(-c4cnc(C5=C(C(=O)N(CC(=O)O)C(C)C)CCC5)[nH]4)cc3)cc2)[nH]1)C(C)C [AA_047] | 10 to 100 | – | –
22 | COC(=O)N[C@H](C(=O)N1CCC[C@H]1c1ncc(-c2ccc3cc(-c4ccc(-c5cnc([C@@H]6C7CCC(O7)[C@@H]6C(=O)N(NC(=O)OC)C(C)C)[nH]5)cc4)ccc3c2)[nH]1)C(C)C (stereo partly shown) [AA_107] | 10 to 100 | – | –
23 | COC(=O)N[C@H](C(=O)N1CCC[C@H]1c1ncc(-c2ccc(-c3ccc(-c4cnc(C5=C(C(=O)N(CC(=O)NC6CC6)C(C)C)CCC5)[nH]4)cc3)cc2)[nH]1)C(C)C [AA_064] | 1 to 10 | – | –
24 | COC(=O)N[C@H](C(=O)N1CCC[C@H]1c1ncc(-c2ccc(-c3ccc(-c4cnc(C5CCCC[C@H]5C(=O)NCC5CC5)[nH]4)cc3)cc2)[nH]1)C(C)C (stereo partly shown) [AA_115] | 1 to 10 | – | –
25 | COC(=O)N[C@H](C(=O)N1CCC[C@H]1c1ncc(-c2ccc(-c3ccc(-c4cnc(C5CCCC[C@H]5C(=O)N5CCCC5)[nH]4)cc3)cc2)[nH]1)C(C)C (stereo partly shown) [AA_055] | 1 to 10 | – | –
26 | COC(=O)N[C@H](C(=O)N1CCC[C@H]1c1ncc(-c2ccc(-c3ccc(-c4cnc(C5CCCC[C@H]5C(=O)N5CCOCC5)[nH]4)cc3)cc2)[nH]1)C(C)C (stereo partly shown) [AA_056] | 1 to 10 | – | –
27 | COC(=O)NN(C(=O)C1C2CCC(O2)[C@H]1c1ncc(-c2ccc(-c3ccc4cc(-c5cnc(C6CCCC[C@H]6C(=O)N(NC(=O)OC)C(C)C)[nH]5)ccc4c3)cc2)[nH]1)C(C)C (stereo partly shown) [AA_092] | 10 to 100 | – | –
28 | COC(=O)N[C@H](C(=O)N1CCC[C@H]1c1ncc(-c2ccc(-c3ccc(-c4cnc(C5C6C=CC(C6)[C@H]5C(=O)N(NC(=O)OC)C(C)C)[nH]4)cc3)cc2)[nH]1)C(C)C (stereo partly shown) [AA_032] | 0.101 to 1 | – | –
29 | COCCNC(=O)[C@@H]1CCCCC1c1ncc(-c2ccc(-c3ccc(-c4cnc([C@@H]5CCCN5C(=O)[C@@H](NC(=O)OC)C(C)C)[nH]4)cc3)cc2)[nH]1 (stereo partly shown) [AA_114] | 1 to 10 | – | –
30 | COC(=O)N[C@H](C(=O)N1CCC[C@H]1c1ncc(-c2ccc3cc(-c4cnc(C5CCCC[C@H]5C(=O)N(NC(=O)OC)C(C)C)[nH]4)ccc3c2)[nH]1)C(C)C (stereo partly shown) [AA_079] | 10 to 100 | – | –
31 | COC(=O)N[C@H](C(=O)N1CCC[C@H]1c1ncc(-c2ccc(-c3ccc(-c4cnc(C5CCCC[C@H]5C(=O)N5CCCCC5)[nH]4)cc3)cc2)[nH]1)C(C)C (stereo partly shown) [AA_057] | 10 to 100 | – | –
32 | COC(=O)N[C@H](C(=O)N1CCC[C@H]1c1ncc(-c2ccc3cc(-c4ccc(-c5cnc([C@@H]6CCCC[C@@H]6C(=O)N(NC(=O)OC)C(C)C)[nH]5)cc4)ccc3c2)[nH]1)C(C)C [AA_090_A] | 1 to 10 | – | –
33 | COC(=O)N[C@H](C(=O)N1CCC[C@H]1c1ncc(-c2ccc3cc(-c4ccc(-c5cnc([C@H]6CCCC[C@H]6C(=O)N(NC(=O)OC)C(C)C)[nH]5)cc4)ccc3c2)[nH]1)C(C)C [AA_090_B] | 1 to 10 | – | –
34 | COC(=O)N[C@H](C(=O)N1CCC[C@H]1c1ncc(-c2ccc(-c3ccc(-c4cnc(C5=C(C(=O)NC(C)C)CCC5)[nH]4)cc3)cc2)[nH]1)C(C)C [AA_027] | 10 to 100 | – | –
35 | COC(=O)N[C@H](C(=O)N1CCC[C@H]1c1ncc(-c2ccc(-c3ccc([C@@H](C)NC(=O)[C@H]4CCCC[C@H]4C(=O)N(NC(=O)OC)C(C)C)cc3)cc2)[nH]1)C(C)C [AA_096] | 10 to 100 | – | –
36 | COCCCNC(=O)[C@@H]1CCCCC1c1ncc(-c2ccc(-c3ccc(-c4cnc([C@@H]5CCCN5C(=O)[C@@H](NC(=O)OC)C(C)C)[nH]4)cc3)cc2)[nH]1 (stereo partly shown) [AA_116] | 1 to 10 | – | –

From patent US10160771B2, “Hepatitis C virus inhibitors and uses thereof in preparation of drugs” (priority 2014, dated 2018)
